These results are taken from patent publication US4355179A, “Radioactive nuclide labeled propiophenone compounds” (Burroughs Wellcome Co., priority 1980, dated 1982).

Assay [1] concerns antisera raised by a bupropion variant-carrier material conjugate. Kind of assay: Competition with radiolabeled bupropion or radiolabeled competitor for binding to antisera. The note with it: against radiolabeled bupropion or radiolabeled competitor.
Another assay deals with anti-compound 1 sera. As to the kind of experiment: RIA of bupropion using 125I-labeled competitor with anti-compound 1 sera. In kind it is binding. The note with it: compound 6 with anti-compound 1 sera, compared with the other RIA's. The method, then: Samples of six standard solutions of bupropion in blank plasma having concentrations of 0.39 to 50 ng/ml) are pipetted (0.1 ml each) in duplicate into 12×75 mm plastic tubes. Duplicate non-specific binding (no antibody) and maximum binding tubes (no unlabeled bupropion) receive 0.1 ml blank plasma. Spiked plasma controls at several concentrations of (e.g., 1.0, 10.0, and 100 ng/ml) and plasma samples for assay (diluted into the standard range with blank plasma if necessary) are assayed in duplicate. After being placed in an ice bath, all tubes receive (in order) 0.2 ml ^3 H bupropion (416 pg. containing approximately 10^4 cpm) and 0.7 ml anti-bupropion serum (raised to a ring-functionalized immunogen according to the present invention) (at pre-determined dilutions such that approximately 40% of the ^3 H bupropion added is bound), both in assay buffer (0.05 M phosphate-bufferedisotonic saline, containing 0.01 M EDTA and 0.1% gelatin, pH 7.0). […] The supernatants, containing antibody-bound ^3 H bupropion are carefully decanted into liquid scintillation cocktail for quantitation of ^3 H. After counts (minus average non-specific binding cpm) are expressed as percentages of average maximum binding cpm, bupropion concentrations in plasma samples and spiked controls are read from a standard curve (log concentration vs percent average maximum binding). […]

In assay [2] the test system is anti-compound 2 sera, anti-compound 3 sera. Kind of assay: RIA of bupropion using 125I-labeled competitors with anti-compound 2 sera and anti-compound 3 sera. The note with it: with anti-compound 2 or anti-compound 3 sera. Type of assay: binding. The method, then:
Samples of six standard solutions of bupropion in blank plasma having concentrations of 0.39 to 50 ng/ml) are pipetted (0.1 ml each) in duplicate into 12×75 mm plastic tubes. Duplicate non-specific binding (no antibody) and maximum binding tubes (no unlabeled bupropion) receive 0.1 ml blank plasma. Spiked plasma controls at several concentrations of (e.g., 1.0, 10.0, and 100 ng/ml) and plasma samples for assay (diluted into the standard range with blank plasma if necessary) are assayed in duplicate. After being placed in an ice bath, all tubes receive (in order) 0.2 ml ^3 H bupropion (416 pg. containing approximately 10^4 cpm) and 0.7 ml anti-bupropion serum (raised to a ring-functionalized immunogen according to the present invention) (at pre-determined dilutions such that approximately 40% of the ^3 H bupropion added is bound), both in assay buffer (0.05 M phosphate-bufferedisotonic saline, containing 0.01 M EDTA and 0.1% gelatin, pH 7.0). Non-specific binding tubes receive 0.7 ml assay buffer.) Following incubation either at 25° C. for 2 hours or overnight at 4° C., bound and free ^3 H bupropion are separated by incubation for 10 min at 0° C. with 0.5 ml ice-cold dextran-coated charcoal solution (0.25% dextran, 5 mg/ml charcoal, in assay buffer) followed by centrifugation for 10 minutes at 4° C. […] The supernatants, containing antibody-bound ^3 H bupropion are carefully decanted into liquid scintillation cocktail for quantitation of ^3 H. After counts (minus average non-specific binding cpm) are expressed as percentages of average maximum binding cpm, bupropion concentrations in plasma samples and spiked controls are read from a standard curve (log concentration vs percent average maximum binding).
RIA's have been run according to the method of Example X utilizing ^125 I labeled bupropion competitors of the present invention in conjunction with antisera obtained following immunization with immunogens of the present invention. […] Following the ethanol precipitation of antibody-bound ^125 I-bupropion competitor at equilibrium, ^125 I in the protein pellets was quantified.

In the case of `CC(NC(C)(C)C)C(=O)c1cccc(Cl)c1` (racemic) [bupropion, (±)-2-tert-butylamino-3'-chloropropiophenone], the “competition for binding to antisera” value in assay [1] is recorded as “successfully compete”.
On to `CC(NC(C)(C)C)C(=NOCC(=O)NCCc1ccc(O)c([125I])c1)c1cccc(Cl)c1` (stereo not drawn) [Compound 6, α-t-Butylamino-3-chloropropiophenone-carboxymethyloxime-^125 I-tyramine amide], for which the RIA sensitivity entry in the assay with anti-compound 1 sera is “least sensitive”.
As to `CC(NC(C)(C)C)C(=O)c1ccc(OCC(=O)NCCc2ccc(O)c([125I])c2)c(Cl)c1` (stereo not drawn) [Compound 7, α-t-Butylamino-3-chloro-4-carbomethoxypropiophenone-^125 I-tyramine amide], the “RIA sensitivity relative to the compound 10 (3H bupropion) assay system” value in assay [2] is “approximately equal”.
`CC(NC(C)(C)C)C(=O)c1ccc(CCCOC(=O)CCC(=O)NCCc2ccc(O)c([125I])c2)c(Cl)c1` (stereo not drawn) [Compound 8, α-t-butylamino-3-chloro-4-γ-hydroxypropylpropiophenonehemisuccinate-^125 I-tyramine amide]: the “RIA sensitivity relative to the compound 10 (3H bupropion) assay system” value in assay [2] is listed as “approximately equal”.
Same read-out and setting: in the case of `CC(NC(C)(C)C)C(=O)c1ccc(O)c([125I])c1` (stereo not drawn) [Compound 9, ^125 I-α-t-Butylamino-3-iodo-4-hydroxypropiophenone] it was “approximately ten times more sensitive”.
